Results taken from US9205124B2, “Compounds for enzyme inhibition” (Onyx Therapeutics, Inc., priority 2005, dated 2015).

Test system: proteasome CT-L activity
Assay: Proteasome CT-L activity in blood lysates of mice one hour after oral dosing (LLVY-AMC cleavage)
Assay type: in vivo
Settings: one hour post-dosing, vs vehicle-dosed cohort
Protocol: Compounds were formulated in 10% PS80/NaCitrate (pH 3) vehicle and administered to mice orally (PO) (3 animals/cohort). One hour post-dosing, the animals were sacrificed and the following tissues harvested: blood, brain, adrenal gland, heart and liver. Whole blood (˜200 μl) was washed twice with PBS and lysed by hypotonic shock (300 μl 50 mM Tris pH 8, 5 mM EDTA). Blood lysates were stored at −80° C. until assayed. Blood lysates were clarified by centrifugation in a microcentrifuge. The CT-L specific activity of proteasome in each lysate was evaluated by determining: a) the protein concentration by modified Bradford assay with bovine gamma globulin as a standard; and b) the rate of cleavage of the fluorogenic proteasome substrate LLVY-AMC. The percent proteasome activity for the analog-treated animals was calculated by dividing of the average specific activity for each analog-dosed cohort by the average specific activity of the vehicle-dosed cohort. Percent proteasome inhibition was calculated by subtracting percent proteasome activity from 100.

Structure (SMILES) | proteasome CT-L inhibition (40 mg/kg PO) [%] | proteasome CT-L inhibition (20 mg/kg PO) [%]
COC[C@H](NC(=O)c1cc(C)on1)C(=O)N[C@@H](Cc1ccccc1)C(=O)N[C@@H](CC(C)C)C(=O)[C@@]1(C)CO1 [Compound (010)] | > 90 | 
CC(C)C[C@H](NC(=O)c1cc(CN2CCOCC2)on1)C(=O)N[C@@H](Cc1ccccc1)C(=O)N[C@@H](CC(C)C)C(=O)[C@@]1(C)CO1 [Compound (023)] | > 80 | 
COC[C@H](NC(=O)c1cc(C)on1)C(=O)N[C@H](C(=O)N[C@@H](CC(C)C)C(=O)[C@@]1(C)CO1)C(C)C [Compound (029)] |  | > 70
COC[C@H](NC(=O)c1cc(C)on1)C(=O)N[C@@H](Cc1cscn1)C(=O)N[C@@H](CC(C)C)C(=O)[C@@]1(C)CO1 [Compound (039)] |  | > 75
Cc1cc(C(=O)N[C@@H](Cc2ccccn2)C(=O)N[C@@H](Cc2ccccc2)C(=O)N[C@@H](CC(C)C)C(=O)[C@@]2(C)CO2)no1 [Compound (055)] |  | > 80
CC(C)C[C@H](NC(=O)[C@H](Cc1ccccc1)NC(=O)[C@@H](NC(=O)c1cc(CN2CCOCC2)on1)C(C)C)C(=O)[C@@]1(C)CO1 [Compound (061)] | > 80 | 
COCC[C@H](NC(=O)c1cc(C(C)C)on1)C(=O)N[C@@H](Cc1ccccc1)C(=O)N[C@@H](CC(C)C)C(=O)[C@@]1(C)CO1 [Compound (068)] | > 70 | 
COC[C@H](NC(=O)c1ccon1)C(=O)N[C@@H](COC)C(=O)N[C@@H](CC(C)C)C(=O)[C@@]1(C)CO1 [Compound (083)] |  | > 80
COC[C@H](NC(=O)c1cc(C)no1)C(=O)N[C@@H](COC)C(=O)N[C@@H](CC(C)C)C(=O)[C@@]1(C)CO1 [Compound (085)] |  | > 50
